{
  "source": "patent US11801302B2",
  "about": "“Formulations and uses thereof” (priority 2020, dated 2023)",
  "origin": "cited, not measured here",
  "key": {"[1]": {"test_system": "cholesterol transport-related protein (NPC1L1)", "settings": "cell model"}, "blood pressure": {"test_system": "blood pressure", "settings": "in some cases patients no longer needing antihypertensive medications"}, "wound": {"test_system": "wound", "settings": "setting of a wound"}, "[2]": {"test_system": "anger, mitochondrial function", "settings": "in vivo"}, "chronic plaque psoriasis": {"test_system": "chronic plaque psoriasis", "settings": "topical application"}, "[3]": {"test_system": "UV-induced hyperpigmentation of the skin", "settings": "in vivo"}, "cancer": {"test_system": "cancer", "settings": "in vitro and in vivo"}, "[4]": {"test_system": "central benzodiazepine receptor"}, "[5]": {"test_system": "skin, prostate, breast, and ovarian cancer", "settings": "preclinical models of skin"}, "[6]": {"test_system": "inflammatory markers PPARγ and TNFα", "settings": "with emu oil; animal model of ulcerative colitis"}, "normal mice": {"test_system": "normal mice", "settings": "observed only at a dose of 30 mg/kg in normal mice"}, "[7]": {"test_system": "patients who respond with increased carboxylation of osteocalcin", "settings": "subset of patients with increased carboxylation of osteocalcin"}, "diuresis": {"test_system": "diuresis", "settings": "dose-dependent; only when animals were fluid overloaded, not euvolemic"}, "anxiety": {"test_system": "anxiety", "settings": "in vivo"}, "HDL and LDL cholesterol": {"test_system": "HDL and LDL cholesterol", "settings": "in vivo"}, "[8]": {"test_system": "hyperactivity induced by MK-801", "settings": "in vivo"}, "[9]": {"settings": "compared with other vitamin K homologs"}, "bone": {"test_system": "bone", "settings": "in vivo"}, "[10]": {"test_system": "atypical/precancerous stem cells", "settings": "used separately or together"}},
  "note": "“Also recorded” adds a separate entry of the source.",
  "data": [
    {"smiles": "CCCCCCCC/C=C\\CCCCCCCC(=O)O", "note": "[Oleic acid (OA)]", "values": [
      {"measurement": "expression of cholesterol transport-related protein (NPC1L1)", "setting": "[1]", "value": "2235880). OA has been shown to decrease"},
      {"measurement": "blood pressure", "setting": "blood pressure", "value": "21181463). OA has been shown to reduce blood"},
      {"measurement": "thickness of the necrotic tissue layer in the wound", "setting": "wound", "value": "wound healing tissue mass, while decreasing"},
      {"measurement": "anger", "setting": "[2]", "value": "unexpectedly has been shown to decrease anger"},
      {"measurement": "pain and itch receptors", "setting": "pain and itch receptors", "value": "directly inhibits pain and itch receptors (PMID"},
      {"measurement": "lipophilic penetration of skin cells", "setting": "skin cells", "value": "Oleic acid (OA) enhances lipophilic penetration"}
    ]},
    {"smiles": "C=C1/C(=C\\C=C2/CCC[C@]3(C)[C@@H]([C@H](C)/C=C/[C@@H](O)C4CC4)CC[C@@H]23)C[C@@H](O)C[C@@H]1O", "note": "[calcipotriene]", "values": [
      {"measurement": "chronic plaque psoriasis", "setting": "chronic plaque psoriasis", "value": "topical application of calcipotriene improves"}
    ]},
    {"smiles": "CCCCC/C=C\\C/C=C\\CCCCCCCC(=O)O", "note": "[Linoleic acid]", "values": [
      {"measurement": "UV-induced hyperpigmentation of the skin", "setting": "[3]", "value": "shown to lighten UV-induced"}
    ]},
    {"smiles": "O=C(O)c1cc(O)c(O)c(O)c1", "note": "[Gallic Acid]", "values": [
      {"measurement": "inhibitory properties against cancer", "setting": "cancer", "value": "Plant polyphenol with strong inhibitory"}
    ]},
    {"smiles": "C=C(C)[C@@H]1CC=C(C(=O)O)CC1", "note": "[perillic acid]", "values": [
      {"measurement": "production of IFN-γ, IL-2, TNF-α, IL-4 and IL-13 by CD3(+) CD4(+) T cells; IFN-γ, IL-2, and TNF-α by CD3(+) CD8(+) T cells", "setting": "T lymphocytes", "value": "viability (PMID 23059811) by inhibiting"}
    ]},
    {"smiles": "O=c1cc(-c2ccc(O)cc2)oc2cc(O)cc(O)c12", "note": "[Apigenin]", "values": [
      {"measurement": "anxiolytic and mild sedative effects when flumazenil is administered first", "setting": "[4]; benzodiazepine antagonist flumazenil", "value": "(PMID 7617761), an effect that is reversible"},
      {"measurement": "effects as central benzodiazepine receptor ligand", "setting": "[4]; in vivo", "value": "ligand with anxiolytic and slight sedative; also recorded: ligand with anxiolytic and mild sedative effects"},
      {"measurement": "antitumor effect", "setting": "[5]", "value": "exerts an antitumor effect in preclinical models"}
    ]},
    {"smiles": "CC(C)=CCC/C(C)=C/CO", "note": "[geraniol]", "values": [
      {"measurement": "kidney glycogen content", "setting": "GLUT2 transporter; compared to diabetic control", "value": "release of glucose from the liver; also doubled"},
      {"measurement": "renal glucose output", "setting": "GLUT2 transporter; compared to diabetic control", "value": "kidney glycogen content, doubling renal glucose"},
      {"measurement": "GLUT2 transporter", "setting": "GLUT2 transporter; geraniol from Cymbopogon martinii", "value": "inhibition of GLUT2 transporter by geraniol"}
    ]},
    {"smiles": "CC1(C)[C@@H](O[C@H]2O[C@H](C(=O)O)[C@@H](O)[C@H](O)[C@H]2O[C@@H]2O[C@H](C(=O)O)[C@@H](O)[C@H](O)[C@H]2O)CC[C@]2(C)[C@H]3C(=O)C=C4[C@@H]5C[C@@](C)(C(=O)O)CC[C@]5(C)CC[C@@]4(C)[C@]3(C)CC[C@@H]12", "note": "[glycyrrhizin]", "values": [
      {"measurement": "anti-inflammatory effect by modulating PPARγ and TNFα", "setting": "[6]", "value": "synergizes with emu oil to exert a stronger anti-"}
    ]},
    {"smiles": "COc1cc(CCC(C)=O)ccc1O", "note": "[zingerone]", "values": [
      {"measurement": "diuretic effect", "setting": "normal mice", "value": "Oil, zingerone exhibited a mild diuretic effect"}
    ]},
    {"smiles": "CC(C)=CCC/C(C)=C/CC/C(C)=C/CC/C(C)=C/CC/C(C)=C/CC/C(C)=C/CC/C(C)=C/CC1=C(C)C(=O)c2ccccc2C1=O", "note": "[Vitamin K2 (MK7)]", "values": [
      {"measurement": "body weight, abdominal and visceral fat", "setting": "[7]", "value": "reduced body weight, abdominal and visceral"}
    ]},
    {"smiles": "C=C(C)[C@H]1CC=C(C)CC1", "note": "[D-limonene]", "values": [
      {"measurement": "production of IFN-γ, IL-2, TNF-α, IL-4 and IL-13 by CD3(+) CD4(+) T cells; IFN-γ, IL-2, and TNF-α by CD3(+) CD8(+) T cells", "setting": "T lymphocytes", "value": "viability (PMID 23059811) by inhibiting"},
      {"measurement": "diuretic effect", "setting": "diuresis", "value": "more capable. D-limonene has a mild diuretic"},
      {"measurement": "anxiolytic properties with flumazenil", "setting": "anxiety", "value": "is NOT reversed by flumazenil, indicating a"}
    ]},
    {"smiles": "CCCCCCCCCCCCCCCCCC(=O)O", "note": "[Stearic acid]", "values": [
      {"measurement": "“bad” cholesterol LDL", "setting": "HDL and LDL cholesterol", "value": "cholesterol HDL while reducing the “bad”"},
      {"measurement": "“good” cholesterol HDL", "setting": "HDL and LDL cholesterol", "value": "10945745) and can increase the “good”"}
    ]},
    {"smiles": "O=c1c(O)c(-c2ccc(O)c(O)c2)oc2cc(O)cc(O)c12", "note": "[Quercetin]", "values": [
      {"measurement": "hyperactivity induced by NMDA receptor antagonist MK-801", "setting": "[8]", "value": "transmission and alleviates the hyperactivity"}
    ]},
    {"smiles": "CC(C)=CCC/C(C)=C/CC/C(C)=C/CC/C(C)=C/CC/C(C)=C/CC/C(C)=C/CC/C(C)=C/CC1=C(C)C(=O)c2ccccc2C1=O", "note": "[MK7]", "values": [
      {"measurement": "bioavailability", "setting": "[9]", "value": "higher bioavailability"},
      {"measurement": "half-life", "setting": "[9]", "value": "longer half-life"},
      {"measurement": "bone mineral density", "setting": "bone", "value": "other vitamin K homologs. MK7 increases"}
    ]},
    {"smiles": "C=C(C)C1CCC(C)(O)C(O)C1", "note": "(stereo not drawn) [limonene-1-2-diol]", "values": [
      {"measurement": "production of IFN-γ, IL-2, TNF-α, IL-4 and IL-13 by CD3(+) CD4(+) T cells; IFN-γ, IL-2, and TNF-α by CD3(+) CD8(+) T cells", "setting": "T lymphocytes", "value": "viability (PMID 23059811) by inhibiting"}
    ]},
    {"smiles": "COc1cc(/C=C/C(=O)CC(=O)/C=C/c2ccc(O)c(OC)c2)ccc1O", "note": "[curcumin, diferuloylmethane]", "values": [
      {"measurement": "number of atypical/precancerous stem cells", "setting": "[10]", "value": "reduced the number of atypical/precancerous stem cells"}
    ]}
  ]
}
